The target of assay [1] is T1, AR (Homo sapiens, UniProt P10275).
T1 construct: expressed in transfected cells; host or cells: PC-3
T1 sequence (P10275 1-920): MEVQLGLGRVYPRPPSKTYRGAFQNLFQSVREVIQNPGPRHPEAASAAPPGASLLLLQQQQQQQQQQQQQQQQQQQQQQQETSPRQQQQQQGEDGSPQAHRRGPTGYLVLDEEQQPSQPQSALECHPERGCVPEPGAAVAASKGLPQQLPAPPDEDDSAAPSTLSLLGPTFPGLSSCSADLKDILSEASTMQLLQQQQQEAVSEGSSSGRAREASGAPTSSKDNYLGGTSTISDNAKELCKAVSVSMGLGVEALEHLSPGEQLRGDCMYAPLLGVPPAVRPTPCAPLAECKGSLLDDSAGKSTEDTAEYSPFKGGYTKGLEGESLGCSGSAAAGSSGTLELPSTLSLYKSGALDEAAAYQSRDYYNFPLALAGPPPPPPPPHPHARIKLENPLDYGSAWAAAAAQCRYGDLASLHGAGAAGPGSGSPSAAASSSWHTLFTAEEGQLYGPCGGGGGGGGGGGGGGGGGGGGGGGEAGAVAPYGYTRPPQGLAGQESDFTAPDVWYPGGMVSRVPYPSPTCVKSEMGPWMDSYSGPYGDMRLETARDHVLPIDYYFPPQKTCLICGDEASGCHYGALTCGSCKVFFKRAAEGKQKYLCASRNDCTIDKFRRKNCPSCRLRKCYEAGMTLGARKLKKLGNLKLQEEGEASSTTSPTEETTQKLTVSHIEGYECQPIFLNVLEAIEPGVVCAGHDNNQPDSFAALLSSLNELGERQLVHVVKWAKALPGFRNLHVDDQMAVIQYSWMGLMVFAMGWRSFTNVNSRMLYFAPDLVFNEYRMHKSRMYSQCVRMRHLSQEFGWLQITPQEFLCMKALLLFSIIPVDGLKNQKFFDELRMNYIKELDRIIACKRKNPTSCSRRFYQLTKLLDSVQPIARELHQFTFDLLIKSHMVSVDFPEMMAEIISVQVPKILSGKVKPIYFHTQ
Description: pPSA-Luc / MMTV-Luc reporter assay in PC-3 cells with or without AR expression vector. The class given is cell-based. Conditions: PC-3 co-transfected with AR expression vector; pPSA-Luc, same with MMTV-Luc. As to the method: (§1) Plasmid Reporters and Expression Vectors. The ARE responsive luciferase reporter plasmid, pPSA-630 luciferase (pPSA-Luc) was prepared as previously described (29). pPSA-Luc contains the PSA promoter region (−630 to 12) with three AREs, all of which are critical to the activity of the pPSA-Luc promoter. The MMTV-Luc contains one consensus ARE and the expression vector, pCMV-hAR constitutively expresses a fully functional human androgen receptor. The pCMV-GFP-rAR was prepared as previously described (30).
(§2) Transient Transfections with Reporters and Luciferase Assay. LNCaP and PC-3 cells were transfected, with some modifications, as previously described (20). For AR transactivation, cells were transfected with 0.1 μg of MMTV-Luc or pPSA-Luc per plate. Co-transfection experiments with pCMV-hAR or pCMV-GFP-rAR, 0.1 μg per plate was also used. For experiments involving GFP fluorescence imaging, treatments were not added until 30 h after transfection.
(In general: In a reporter assay the amount or activity of a reporter protein is the signal.)

In assay [2] the target is T2, AR (Homo sapiens, UniProt P10275, T878A).
T2 construct: 95 μL of either LNCaP cell extracts or recombinant AR protein; endogenous in cells; host or cells: LNCaP
T2 sequence (P10275 1-920 T878A): T1 sequence (P10275 1-920) with T878A
Description: MMTV-Luc / pPSA-Luc reporter assay in LNCaP cells. Format: cell-based. The method, then:
as §1, §2

Where a chain is given by its changes, count along the chain named.

As a reminder, the inhibition is the drop in the measured response relative to a control, in per cent. Regarding `c1ccc2c(Cc3c[nH]c4ccccc34)c[nH]c2c1` [DIM, 3,3′-diindolylmethane], the “inhibition of DHT-induced transactivation” value at AR [1] was “concentration-dependent inhibition”. Also, the inhibition at 1 µM at AR [2] (read-out: inhibition of DHT induction of androgen-responsive genes, 1 μM, both MMTV-Luc and pPSA-Luc) is above 50%. On AR [2] (read-out: inhibition of DHT induction of androgen-responsive genes, 10 μM, both MMTV-Luc and pPSA-Luc), the inhibition at 10 µM was above 90%. For the same compound, the “transactivation of reporter genes by compound alone” value at AR [2] (without DHT) was “failed to induce transactivation”.
